In US8293211B2, “CB1 receptor antagonists and uses thereof” (MAKScientific, LLC, priority 2007, dated 2012):
Read-outs that look alike come from different tables or passages of the source.

Experiments:
[1] = biological target: T1, hCB1 (Homo sapiens, UniProt P21554); experiment: Forskolin-stimulated cAMP assay; assay type: cell-based; conditions: HEK293 cells transfected with human CB1 receptors
T1 construct: expressed in transfected cells; host or cells: HEK293
Method: Intracellular cAMP levels were measured with a competitive protein-binding assay using intact HEK293 cells expressing hCB1 or hCB2 and a cAMP immunoassay kit from Sigma (St. Louis, Mo.). In short, forskolin stimulated cells were incubated with various concentrations of compound, cAMP anti-body and cAMP conjugate for 2 hours at ambient temperature. The reaction was stopped by emptying the wells followed by the addition of p-NPP substrate and incubation for 1 hour. […] The results were expressed as percent inhibition of forskolin-stimulated cAMP accumulation and EC50 curves were generated with the use of GraphPad Prism software.

[2] = test system: Rats; experiment: Operant lever pressing on FR5 schedules; assay type: in vivo, rat; conditions: for ED50: Rattus norvegicus
Method: Following the initial training period, rats (n=8 each group) were injected with drug and then tested once a week on Thursdays. For experiments 1 and 2, Compound 3 or Compound 2, respectively were injected IP at doses of 1.0, 2.0, 4.0, or 8.0 mg/kg or vehicle. Pretreatment time for these two experiments was 30 min. For experiments 3 and 4, rats were given drug or vehicle orally 1 hour before testing. In experiment 3, rats were given vehicle or 8.0, 16.0, or 32.0 mg/kg Compound 3. In experiment 4, rats received vehicle or Compound 2 at doses of 4.0, 8.0, or 16.0 mg/kg. All doses were given in a randomized order using a repeated measures design.

[3] = test system: Male Sprague-Dawley (SD) rats; experiment: Food intake studies (experiments A, B, C), food intake and body weight; assay type: in vivo, rat; conditions: for food intake, difference to rats treated with Compound 3: 5 mg kg-1 each
Method: All experimental protocols were approved by internal guidelines. Different concentrations of drugs were administered I.P. in a 1 ml kg-1 (milliliters per kilogram) volume, except M6G, which was given s.c. (subcutaneously) in a 0.1 ml kg-1 volume.
Food and water were presented in inverted glass bottles that attached to the outside of the cage. Food was available for 18 h each day starting at 16:00 h (12 h light-dark cycle; lights off 16:00 h).
Intake measurements were taken at 1.5 h, 3 h, 5 h, and 18 h after food became available.
Rats were habituated to testing and handling procedures as before. […] Food intake and body weight were monitored daily.
On the day of the experiment each rat received only a single injection, 30 min later food was made available as described in experiment 1. Food intake was measured 0.5, 1.5, 3, 5, and 18 h after administration. Food intake and body weight were monitored daily for five days after the experiment to assess the sustained effect of a single administration of each compound.

[4] = biological target: CB1 receptor (Rattus norvegicus, UniProt P20272); experiment: Thermoregulation assay: hypothermia induced by the CB1 agonist CP55,940; assay type: in vivo; set-up: antagonized CB1 receptors in vivo; from tissue; host or cells: whole animal, male SD rats; conditions: 5 mg kg-1 pre-treatment 45 min before CP55,940 0.3 mg kg-1; compared with vehicle
Method: Briefly, silicone coated temperature data loggers (SubCue Inc, Calgary, Canada) were surgically implanted into the abdominal cavity of male SD (450-500 g) rats under isoflurane anesthesia (4% induction; 2-2.5% maintenance). Rats were allowed to recover for 3 days before being acclimatized to testing and handling procedures for an additional seven days. Core body temperature readings were sampled every 5 min for 300 min during the course of each experiment.

T1 sequence (P21554 whole entry): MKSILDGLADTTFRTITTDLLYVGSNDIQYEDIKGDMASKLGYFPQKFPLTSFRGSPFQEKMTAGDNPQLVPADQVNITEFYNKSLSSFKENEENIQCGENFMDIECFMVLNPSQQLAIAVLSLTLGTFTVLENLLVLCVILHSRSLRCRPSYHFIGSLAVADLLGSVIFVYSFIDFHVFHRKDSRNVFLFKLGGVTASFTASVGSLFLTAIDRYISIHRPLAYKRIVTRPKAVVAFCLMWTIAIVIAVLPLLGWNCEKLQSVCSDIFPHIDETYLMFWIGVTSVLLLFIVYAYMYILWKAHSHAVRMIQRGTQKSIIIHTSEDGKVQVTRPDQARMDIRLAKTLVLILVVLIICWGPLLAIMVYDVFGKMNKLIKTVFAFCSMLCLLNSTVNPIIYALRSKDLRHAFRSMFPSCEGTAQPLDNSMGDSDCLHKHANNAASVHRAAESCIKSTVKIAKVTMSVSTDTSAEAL
Chain of CB1 receptor (P20272 whole entry): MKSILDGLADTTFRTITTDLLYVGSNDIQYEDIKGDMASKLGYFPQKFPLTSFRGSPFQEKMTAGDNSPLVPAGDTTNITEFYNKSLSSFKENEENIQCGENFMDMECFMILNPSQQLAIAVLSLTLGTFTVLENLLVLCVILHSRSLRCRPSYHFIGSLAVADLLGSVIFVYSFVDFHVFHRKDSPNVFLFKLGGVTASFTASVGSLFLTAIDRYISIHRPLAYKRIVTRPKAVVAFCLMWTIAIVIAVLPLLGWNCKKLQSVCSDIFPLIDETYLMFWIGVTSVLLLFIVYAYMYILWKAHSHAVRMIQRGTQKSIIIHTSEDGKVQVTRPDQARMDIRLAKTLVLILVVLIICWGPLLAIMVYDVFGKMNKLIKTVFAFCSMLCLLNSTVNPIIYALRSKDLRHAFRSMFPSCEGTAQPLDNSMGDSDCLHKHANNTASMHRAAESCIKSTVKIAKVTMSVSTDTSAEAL

Structure (SMILES) | effect on forskolin stimulated cAMP production [1] | suppression of FR5 responding compared to vehicle ([2]; IP 1.0, 2.0, 4.0, 8.0 mg/kg) | ED50 ([2]; IP, pretreatment 30 min, read-out: ED50 for the effect on FR5 responding) | ED50 ([2]; oral, 1 hour before testing, read-out: ED50 for suppression of lever pressing on FR5) | change in lever pressing on FR5 compared to vehicle ([2]; oral, 1 hour before testing (Compound 3 8.0-32.0 mg/kg; Compound 2 4.0-16.0 mg/kg)) | acute effect on food intake compared with vehicle ([3]; experiment A, 5 mg kg-1 I.P. single dose) | food intake, difference to rats treated with Compound 3 ([3]; experiment A, 5 h) | food intake, difference to rats treated with Compound 3 ([3]; experiment A, 18 h) | early effect on food intake at each time point ([3]; experiment C, 5 mg kg-1 single dose) | weight gain for several days after the experiment ([3]; experiment C, single administration (Compound 1 5 mg kg-1; Compound 3 10, 20 mg kg-1)) | hypothermic effect of CP55,940 [4]
Cc1c(C(=O)NN2CCOCC2)nn(-c2ccc(Cl)cc2Cl)c1-c1ccc(C#CCCC#N)cc1 [Compound 2] | no effect | significantly suppressed | 0.576 mg/kg | 1.49 mg/kg | dose-dependent decrease |  |  |  |  |  | 
Cc1c(C(=O)NN2CCCCC2)nn(-c2ccc(Cl)cc2Cl)c1-c1ccc(I)cc1 [Compound 1, N-(Piperidin-1-yl)-5-(4-iodophenyl)-1-(2,4-dichlorophenyl)-4-methyl-1H-pyrazole-3-carboxamide, reference compound] |  |  |  |  |  | significantly reduced food intake | -15.5 g | -26.1 g | significantly reduced food intake | significantly reduced | significantly attenuated
